# Experimental data reported in ChEMBL document CHEMBL1201862, “PubChem BioAssay data set” (2004).
# Calls of active or inactive are those of the source.
# Tests used:
# Vasopressin V1a receptor = Vasopressin V1a receptor (Homo sapiens, UniProt P37288); assay: Counterscreen for Oxytocin Receptor (OXTR) agonists: Fluorescence-based cell-based high throughput dose response assay to identify agonists of the vasopressin 1 receptor (V1R). [Related pubchem assays: 2435 (Primary screen (OXTR agonists in singlicate)), 434991 (Counterscreen (V1R agonists in triplicate)), 2482 (Summary (OXTR agonists)) …; assay type: functional
# [1] = growth suppression of beta-catenin-knockout colon cells, dose response, cell-based, HCT116, human colon tumor (AID 1045); assay type: functional;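 note: HCT116 colon tumor cells with beta catenin knocked out; cells exposed to compound for 60 hours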
# [2] = growth suppression of PTEN-null colon cells, dose response, cell-based, HCT116 PTEN knockout (AID 1047); assay type: functional;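 note: HCT116 colon tumor cells with PTEN knocked out; cells exposed to compound for 60 hours before readout; potency for loss of cell viability measured by luminescence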
# Oxytocin receptor = Oxytocin receptor (Homo sapiens, UniProt P30559); assay: Fluorescence-based cell-based high throughput dose response assay for agonists of the Oxytocin Receptor (OXTR). [Related pubchem assays: 2435 (Primary screen (OXTR agonists in singlicate)), 434991 (Counterscreen (V1R agonists in triplicate)), 2482 (Summary (OXTR agonists)), 434963 (Confirmation screen (OXTR agonists in triplicate))]; assay type: functional
# INS1 = assay: beta cell apoptosis inhibitors, cytokine rescue, dose response, luminescence, retest (AID 449756); assay type: functional, cell-based; settings: Rattus norvegicus;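 note: cell death triggered by IL-1 beta plus TNF-alpha plus IFN-gamma mixture; protective hits raise ATP signal compared with cytokine alone wells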
# [3] = Luminescence Cell-Based Dose Retest to Confirm Inhibitors of Cancer Stem Cells. [Related pubchem assays (depositor defined):AID2717, AID2721]; assay type: functional; settings: Homo sapiens
# [4] = molecular target: Neuropeptide Y receptor type 1 (Homo sapiens, UniProt P25929); assay: Fluorescence-based counterscreen for agonists of NPY-Y2: cell-based high-throughput dose response assay for agonists of NPY-Y1.; assay type: functional
# [5] = molecular target: Peroxisome proliferator-activated receptor gamma/Nuclear receptor coactivator 1 (Homo sapiens, UniProt P37231); assay: TR-FRET dose response biochemical High Throughput Screening assay for agonists of the steroid receptor coactivator 1 (SRC-1) recruitment by the peroxisome proliferator-activated receptor gamma (PPAR gamma): non-selective agonists. [Related pubchem assays (depositor defined):AID1300, AID1808, AID504735, AID631]; assay type: protein assay
# [6] = molecular target: Peroxisome proliferator-activated receptor gamma/Nuclear receptor coactivator 2 (Homo sapiens, UniProt P37231); assay: (§1) TR-FRET dose response biochemical High Throughput Screening assay for agonists of the steroid receptor coactivator 2 (SRC-2) recruitment by the peroxisome proliferator-activated receptor gamma (PPAR gamma): non-selective agonists. [Related pubchem assays: 1297, 1032 ]; assay type: functional
# [7] = molecular target: Neuropeptide Y receptor type 2 (Homo sapiens, UniProt P49146); assay: Fluorescence-based cell-based high-throughput dose response assay for agonists of NPY-Y2. [Related pubchem assays: 1703 (Screening assay (CNGC inhibitors).), 1359 (Screening assay (NPY-Y2 potentiators or agonists).), 1304 (Screening assay (NPY-Y1 potentiators or agonists).), 1710 (Screening assay (NPY-Y2 agonists).), 1791 (Summary AID.)]; assay type: functional
# HEK293 = assay: Fluorescence-based counterscreen for potentiators or agonists of NPY-Y2: cell-based high-throughput dose response assay to identify inhibitors of cyclic nucleotide gated ion channel (CNGC) activity. In this assay, the parental HEK293 cell line transfected with a cyclic-nucleotide gated ion channel (CNGC)-based cAMP sensor is used to measure inhibition of isoproterenol-induced CNGC activity by test compound.; assay type: functional; settings: Homo sapiens;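 note: stimulus is 1 µM isoproterenol at EC100 plus PDE inhibitor Ro 20-1724 at 25 µM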
# [8] = molecular target: Peroxisome proliferator-activated receptor gamma/Nuclear receptor coactivator 3 (Homo sapiens, UniProt P37231); assay: as §1, with “3 (SRC-3)” for “2 (SRC-2)”, “1301 (Confirmation screen.), 1048 (Primary screen.)]” for “1297, 1032 ]”; assay type: functional
# Cytochrome P450 2C9 = Cytochrome P450 2C9 (Homo sapiens, UniProt P11712); settings: Potency
# Cytochrome P450 3A4 = Cytochrome P450 3A4 (Homo sapiens, UniProt P08684); settings: Potency;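 note: confirmatory qHTS run detecting inhibitors and substrates of CYP3A4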
# [9] = molecular target: Polyadenylate-binding protein 1 (Homo sapiens, UniProt P11940); assay: PABP poly(A) RNA binding inhibitors, primary screen, biochemical, fluorescence polarization, uHTS (AID 2014)
# [10] = molecular target: Eukaryotic translation initiation factor 4H (Homo sapiens, UniProt Q15056); assay: human eIF4H binding inhibitors, primary screen, translation initiation inhibitor project, biochemical, uHTS, fluorescence polarization (AID 2012)
# [11] = A cytotoxicity screen of small molecule inhibitors of the PhoP region in Salmonella typhi identified in the primary screen. [Related pubchem assays: 1850, 1864, 1985 ]; assay type: functional
# [12] = Counterscreen for IDE inhibitors: Luminescence-based cell-based high throughput dose response assay to identify compounds that are cytotoxic to HEK cells. [Related pubchem assays: 434962 (Primary screen (IDE inhibitors in singlicate)), 449730 (Counterscreen (Cytotoxicity in triplicate)), 435028 (Confirmation (IDE inhibitors in triplicate)) …; assay type: functional; settings: HEK293
# Insulin-degrading enzyme = molecular target: T1, Insulin-degrading enzyme (Homo sapiens, UniProt P14735); assay: Dose Response: Fluorescence polarization-based cell-based high throughput dose response assay for inhibitors of insulin-degrading enzyme (IDE). [Related pubchem assays: 434962 (Primary screen (IDE inhibitors in singlicate)), 449730 (Counterscreen (Cytotoxicity in triplicate)), 435028 (Confirmation (IDE inhibitors in triplicate)), 434984 (Summary …; assay type: functional
# T1 sequence (P14735 whole entry): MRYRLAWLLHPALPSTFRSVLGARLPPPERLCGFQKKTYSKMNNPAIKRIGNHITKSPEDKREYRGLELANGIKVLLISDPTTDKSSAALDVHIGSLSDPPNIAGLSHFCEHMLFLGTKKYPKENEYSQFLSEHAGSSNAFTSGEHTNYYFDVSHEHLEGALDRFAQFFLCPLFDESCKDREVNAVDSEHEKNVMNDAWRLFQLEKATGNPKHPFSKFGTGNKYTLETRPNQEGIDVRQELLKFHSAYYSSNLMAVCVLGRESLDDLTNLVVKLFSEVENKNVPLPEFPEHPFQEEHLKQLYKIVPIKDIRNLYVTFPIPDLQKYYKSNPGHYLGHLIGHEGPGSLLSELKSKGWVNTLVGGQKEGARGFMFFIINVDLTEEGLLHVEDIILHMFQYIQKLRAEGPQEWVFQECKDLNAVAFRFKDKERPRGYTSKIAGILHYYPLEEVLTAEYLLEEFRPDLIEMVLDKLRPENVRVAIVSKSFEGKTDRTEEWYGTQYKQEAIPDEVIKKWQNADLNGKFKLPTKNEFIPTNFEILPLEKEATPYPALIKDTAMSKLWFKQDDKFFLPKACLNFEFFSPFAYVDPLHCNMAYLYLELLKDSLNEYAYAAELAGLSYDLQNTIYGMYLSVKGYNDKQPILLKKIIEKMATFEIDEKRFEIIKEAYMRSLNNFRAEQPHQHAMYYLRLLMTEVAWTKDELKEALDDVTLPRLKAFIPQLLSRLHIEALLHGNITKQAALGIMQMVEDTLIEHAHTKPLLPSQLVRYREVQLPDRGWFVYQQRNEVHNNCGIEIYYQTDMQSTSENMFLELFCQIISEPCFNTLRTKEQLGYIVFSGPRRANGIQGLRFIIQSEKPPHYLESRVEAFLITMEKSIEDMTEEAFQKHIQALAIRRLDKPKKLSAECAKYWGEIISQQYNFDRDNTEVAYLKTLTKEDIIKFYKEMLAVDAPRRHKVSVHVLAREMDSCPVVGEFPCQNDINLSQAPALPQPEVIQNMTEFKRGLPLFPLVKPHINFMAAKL
# Vasopressin V1a receptor, sequence (P37288 whole entry): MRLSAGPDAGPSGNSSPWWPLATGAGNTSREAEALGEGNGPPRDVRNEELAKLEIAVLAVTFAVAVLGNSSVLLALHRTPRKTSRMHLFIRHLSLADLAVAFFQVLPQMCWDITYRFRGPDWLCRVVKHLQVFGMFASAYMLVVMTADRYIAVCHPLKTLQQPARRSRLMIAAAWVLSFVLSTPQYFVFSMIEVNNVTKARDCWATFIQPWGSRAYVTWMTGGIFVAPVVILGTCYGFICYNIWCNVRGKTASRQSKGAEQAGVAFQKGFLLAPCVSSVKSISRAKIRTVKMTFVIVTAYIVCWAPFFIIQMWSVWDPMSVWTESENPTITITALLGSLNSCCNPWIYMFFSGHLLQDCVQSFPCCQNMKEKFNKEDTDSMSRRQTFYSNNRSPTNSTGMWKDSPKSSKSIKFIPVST
# Peroxisome proliferator-activated receptor gamma/Nuclear receptor coactivator 1, sequence (P37231 whole entry): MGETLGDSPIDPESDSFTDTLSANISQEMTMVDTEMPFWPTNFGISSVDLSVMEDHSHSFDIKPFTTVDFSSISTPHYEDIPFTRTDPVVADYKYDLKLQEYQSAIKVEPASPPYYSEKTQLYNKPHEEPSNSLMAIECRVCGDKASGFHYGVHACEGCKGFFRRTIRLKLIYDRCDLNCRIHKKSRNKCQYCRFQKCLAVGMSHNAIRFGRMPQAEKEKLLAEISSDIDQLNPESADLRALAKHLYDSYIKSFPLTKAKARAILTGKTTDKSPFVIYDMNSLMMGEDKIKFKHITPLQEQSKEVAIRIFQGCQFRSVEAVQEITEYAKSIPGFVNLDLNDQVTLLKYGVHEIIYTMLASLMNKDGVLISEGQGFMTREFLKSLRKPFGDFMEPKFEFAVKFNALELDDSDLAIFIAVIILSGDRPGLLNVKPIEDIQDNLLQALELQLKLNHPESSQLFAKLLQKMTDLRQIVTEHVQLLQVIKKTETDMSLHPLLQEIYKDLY
# Peroxisome proliferator-activated receptor gamma/Nuclear receptor coactivator 1, sequence (Q15788 whole entry, further chain): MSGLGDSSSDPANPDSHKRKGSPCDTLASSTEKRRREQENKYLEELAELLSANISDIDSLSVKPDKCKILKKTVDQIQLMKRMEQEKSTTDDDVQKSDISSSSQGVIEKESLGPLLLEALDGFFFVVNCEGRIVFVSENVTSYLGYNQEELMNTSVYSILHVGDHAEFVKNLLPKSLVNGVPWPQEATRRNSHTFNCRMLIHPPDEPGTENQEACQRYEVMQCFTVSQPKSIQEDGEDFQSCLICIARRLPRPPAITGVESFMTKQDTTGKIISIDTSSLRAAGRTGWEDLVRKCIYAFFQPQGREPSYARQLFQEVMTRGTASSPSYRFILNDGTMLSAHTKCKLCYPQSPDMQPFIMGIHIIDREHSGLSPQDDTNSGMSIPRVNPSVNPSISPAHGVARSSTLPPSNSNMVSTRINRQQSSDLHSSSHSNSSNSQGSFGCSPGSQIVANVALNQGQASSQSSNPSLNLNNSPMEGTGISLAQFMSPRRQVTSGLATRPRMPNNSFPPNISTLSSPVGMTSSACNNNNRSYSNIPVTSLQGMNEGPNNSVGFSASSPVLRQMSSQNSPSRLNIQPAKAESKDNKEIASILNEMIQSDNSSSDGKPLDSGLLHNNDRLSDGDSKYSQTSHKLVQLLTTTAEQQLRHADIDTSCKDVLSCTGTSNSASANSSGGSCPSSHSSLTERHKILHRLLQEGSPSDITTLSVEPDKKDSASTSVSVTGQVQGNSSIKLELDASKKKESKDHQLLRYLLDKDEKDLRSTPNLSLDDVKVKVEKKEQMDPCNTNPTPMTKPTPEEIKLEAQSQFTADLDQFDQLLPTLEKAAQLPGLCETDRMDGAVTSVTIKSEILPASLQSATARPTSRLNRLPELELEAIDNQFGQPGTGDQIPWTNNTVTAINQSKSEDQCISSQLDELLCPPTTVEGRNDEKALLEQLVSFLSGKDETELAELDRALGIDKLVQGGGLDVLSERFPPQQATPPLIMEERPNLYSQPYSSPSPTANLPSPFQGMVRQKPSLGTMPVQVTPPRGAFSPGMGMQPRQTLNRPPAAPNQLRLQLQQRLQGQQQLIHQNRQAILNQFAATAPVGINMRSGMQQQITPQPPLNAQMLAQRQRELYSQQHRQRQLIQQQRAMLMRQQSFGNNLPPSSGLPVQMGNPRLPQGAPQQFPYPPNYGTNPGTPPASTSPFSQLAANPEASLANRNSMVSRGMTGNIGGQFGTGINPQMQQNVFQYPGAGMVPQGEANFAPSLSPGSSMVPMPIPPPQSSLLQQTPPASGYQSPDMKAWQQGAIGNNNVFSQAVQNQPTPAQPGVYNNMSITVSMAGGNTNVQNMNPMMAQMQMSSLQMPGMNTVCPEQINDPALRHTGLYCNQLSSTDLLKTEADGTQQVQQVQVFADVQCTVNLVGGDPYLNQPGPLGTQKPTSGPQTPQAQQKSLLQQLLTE
# Peroxisome proliferator-activated receptor gamma/Nuclear receptor coactivator 2, sequence (P37231 whole entry): as the sequence (P37231 whole entry) above
# Peroxisome proliferator-activated receptor gamma/Nuclear receptor coactivator 2, sequence (Q15596 whole entry, further chain): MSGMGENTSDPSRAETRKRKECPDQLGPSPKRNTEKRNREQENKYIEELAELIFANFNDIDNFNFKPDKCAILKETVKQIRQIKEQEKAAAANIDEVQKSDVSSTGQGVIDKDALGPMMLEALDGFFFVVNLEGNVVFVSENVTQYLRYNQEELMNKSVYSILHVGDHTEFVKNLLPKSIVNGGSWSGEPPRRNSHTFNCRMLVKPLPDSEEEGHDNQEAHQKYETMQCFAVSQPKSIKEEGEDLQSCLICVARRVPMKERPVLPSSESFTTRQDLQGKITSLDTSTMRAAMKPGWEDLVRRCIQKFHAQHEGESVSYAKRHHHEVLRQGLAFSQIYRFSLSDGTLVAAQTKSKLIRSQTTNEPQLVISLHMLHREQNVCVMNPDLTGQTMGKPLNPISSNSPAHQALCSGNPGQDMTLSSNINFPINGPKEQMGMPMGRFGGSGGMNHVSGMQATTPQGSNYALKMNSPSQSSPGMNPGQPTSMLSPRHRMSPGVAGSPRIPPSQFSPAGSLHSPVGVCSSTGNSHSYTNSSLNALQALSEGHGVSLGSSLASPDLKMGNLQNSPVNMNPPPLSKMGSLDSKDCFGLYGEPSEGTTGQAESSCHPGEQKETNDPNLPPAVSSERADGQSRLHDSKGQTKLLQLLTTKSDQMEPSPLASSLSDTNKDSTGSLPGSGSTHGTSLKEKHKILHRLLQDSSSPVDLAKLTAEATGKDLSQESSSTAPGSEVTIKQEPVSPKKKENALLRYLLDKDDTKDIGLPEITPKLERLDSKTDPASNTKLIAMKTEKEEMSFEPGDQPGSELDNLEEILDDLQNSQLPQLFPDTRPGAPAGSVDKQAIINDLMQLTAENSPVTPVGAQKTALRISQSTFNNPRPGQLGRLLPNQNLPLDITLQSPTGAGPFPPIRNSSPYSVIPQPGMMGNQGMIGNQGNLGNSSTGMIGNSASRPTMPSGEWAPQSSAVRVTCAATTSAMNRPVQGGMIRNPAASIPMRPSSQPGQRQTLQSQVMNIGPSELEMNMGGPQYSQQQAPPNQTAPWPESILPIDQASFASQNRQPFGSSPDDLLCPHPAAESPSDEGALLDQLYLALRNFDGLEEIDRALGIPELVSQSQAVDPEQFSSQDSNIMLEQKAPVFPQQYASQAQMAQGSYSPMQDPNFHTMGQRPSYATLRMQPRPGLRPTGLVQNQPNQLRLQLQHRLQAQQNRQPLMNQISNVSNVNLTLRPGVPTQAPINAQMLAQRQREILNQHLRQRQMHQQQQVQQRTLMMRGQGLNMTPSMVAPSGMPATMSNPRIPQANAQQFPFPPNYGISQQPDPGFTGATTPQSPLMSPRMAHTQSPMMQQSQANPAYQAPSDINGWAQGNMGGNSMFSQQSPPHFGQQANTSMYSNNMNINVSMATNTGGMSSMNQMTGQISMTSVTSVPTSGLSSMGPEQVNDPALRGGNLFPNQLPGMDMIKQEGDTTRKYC
# Cytochrome P450 3A4, sequence (P08684 whole entry): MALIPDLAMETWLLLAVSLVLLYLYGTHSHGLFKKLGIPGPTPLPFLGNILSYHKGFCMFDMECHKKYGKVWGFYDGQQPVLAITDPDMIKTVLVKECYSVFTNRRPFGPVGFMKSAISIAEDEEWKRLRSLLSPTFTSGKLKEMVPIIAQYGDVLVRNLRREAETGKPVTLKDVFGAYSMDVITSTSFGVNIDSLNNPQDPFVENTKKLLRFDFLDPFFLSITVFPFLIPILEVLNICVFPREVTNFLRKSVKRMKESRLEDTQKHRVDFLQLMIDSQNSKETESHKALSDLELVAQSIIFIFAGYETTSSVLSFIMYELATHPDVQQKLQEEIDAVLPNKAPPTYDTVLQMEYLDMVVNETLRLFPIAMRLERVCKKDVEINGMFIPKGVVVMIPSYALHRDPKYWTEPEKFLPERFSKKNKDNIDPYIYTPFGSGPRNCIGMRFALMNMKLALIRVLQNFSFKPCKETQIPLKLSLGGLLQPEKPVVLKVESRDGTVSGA
compound,measurement,setting,value
COc1ccc(C2NCCc3c2[nH]c2ccccc32)cc1COc1ccc(F)cc1 (centres undefined),EC50,Vasopressin V1a receptor,20.8 µM (not active)
same,EC50,[1],7.05 µM (active)
same,EC50,[2],6.19 µM (active)
same,EC50,Oxytocin receptor,26.7 µM (not active)
same,AC50,INS1,6.96 µM (active)
same,AC50,[3],5.89 µM (active)
CC(C)OC(=O)C(C)Nc1nnc(S)nc1O (centres undefined),EC50,[4],> 35.4 µM (not active)
same,EC50,[5],4.26 µM (active)
same,EC50,[6],4.97 µM (active)
same,EC50,[7],> 35.4 µM (not active)
same,EC50,HEK293,> 35.4 µM (not active)
same,EC50,[8],35.1 µM (not active)
COc1cc2c(cc1O)C[C@H]1c3c(cc(OC)c(O)c3-2)CCN1C [ISOBOLDINE],AC50,Cytochrome P450 2C9,25.1 µM (inconclusive)
same,AC50,Cytochrome P450 3A4,20 µM (inconclusive)
C[N+]1(C)[C@@H]2CC[C@H]1CC(OC(=O)C(c1ccccc1)c1ccccc1)C2 (some centres undefined),IC50,[9],6.66 µM (active)
same,IC50,[10],> 100 µM (inactive)
Cc1nn(-c2cc(N3CCNCC3)ccc2[N+](=O)[O-])c(=O)c2ccccc12,EC50,[11],> 50 µM (active)
COC(=O)C1=C(C)N=c2s/c(=C/c3ccoc3)c(=O)n2C1c1ccccc1 (centres undefined),IC50,[12],16.3 µM (not active)
same,IC50,Insulin-degrading enzyme,> 2.07 µM (active)
